Measurements as given in US20230126447A1, “OCULAR DRUG DEPOT FOR COMPLEMENT-MEDIATED DISORDERS” (priority 2020, published 2023).
Entries after “also recorded” stand apart in the source; their conditions may differ. Like-named read-outs stand apart in the source and are kept apart here.

Assay: Ocular tissue and plasma pharmacokinetics, 15 mg/kg single and BID oral, Dutch Belted rabbits (Example 3/5)
Assay type: in vivo
Details: for MRTlast / Tlast / MRT inf / half-life: Choroid-RPE; for concentration at 1 h / concentration at 6 h / concentration at 168 h / concentration at 24 h / concentration at 96 h / concentration at 240 h / concentration at 0 h / MRT inf / half-life: Dutch Belted, rabbit
Description: Study design including group designation and dose levels are outlined in Table 4. […] Fifteen Dutch Belted and 5 New Zealand White rabbits were used as un-dosed controls. […] The dose volume was 5 mL/kg/dose for all groups. Safety was assessed with toxicological and ophthalmic examinations including slit lamp biomicroscopy, indirect ophthalmoscopy, rebound tonometry, and ultrasonic corneal pachymetry.
Analyst® software (Version 1.6.2) was used to capture the LC-MS/MS data and integrate the peak areas. Calibration standards and QCs were prepared in a blank solution of 75%:25% acetonitrile:water (v:v), ranging from 10 ng/mL to 10,000 ng/mL. Matrix matched standard and QC samples were prepared by mixing 2 μL of standard or QC sample above with 18 μL of appropriate ocular tissue or plasma. The final calibration standards ranged from 1 ng/mL to 1000 ng/mL. All plasma, retina, choroid-RPE, optic nerve, and vitreous humor samples were analyzed in a single run. Iris-ciliary body samples were analyzed in two runs due to a need for sample dilution. […] Dilution QCs were prepared at 5000 ng/mL where appropriate. Two sets of standards were used to bracket the analytical run at the beginning and end of the run. Three sets of QCs were included the analytical runs. All concentrations in ocular matrices are reported as ng/g based on the assumed density of 1 g/mL.
1, 6, 24, 96, 168, and 240 hours post-dose on Day 15, with the eyes collected at the same time as blood sampling. A single blood sample was taken from Groups 4 and 5 at sacrifice. Plasma, vitreous humor (VH), retina, choroid-retina pigmented epithelium (Choroid-RPE), optic nerve (ON), and iris-ciliary body (I-CB) were analyzed by LC-MS/MS to quantify test article concentrations. The lower limit of quantitation (LLOQ) in plasma and vitreous humor was 1.0 ng/mL. The LLOQ was 6.0 ng/g in retina, Choroid-RPE, and I-CB and the optic nerve LLOQ was 15 ng/g, assuming tissue density of 1 g/mL where relevant.
Study design including group designation and dose levels are outlined in Table 18.

[1] = DB rabbit, 15 mg/kg BID, Day 15
[2] = DB rabbit, 15 mg/kg single dose, Day 1
[3] = DB rabbit, 15 mg/kg BID oral, Day 15, 24 h
[4] = DB rabbit, 15 mg/kg BID oral, Day 15, 96 h
[5] = DB rabbit, 15 mg/kg BID oral, Day 15, 168 h
[6] = DB rabbit, 15 mg/kg BID oral, Day 15, 240 h
[7] = DB rabbit, 15 mg/kg single oral dose, Day 1, 0 h
[8] = DB rabbit, 15 mg/kg single oral dose, Day 1, 0 h, 15 mg/kg
[9] = DB rabbit, 15 mg/kg single oral dose, Day 1, 24 h
[10] = DB rabbit, 15 mg/kg single oral dose, Day 1, 96 h
[11] = DB rabbit, 15 mg/kg single oral dose, Day 1, 96 h, 15 mg/kg
[12] = DB rabbit, 15 mg/kg single oral dose, Day 1, 168 h
[13] = DB rabbit, 15 mg/kg single oral dose, Day 1, 240 h
[14] = DB rabbits, Day 1, 15 mg/kg single dose, 0 hr
[15] = choroid-RPE, po, 15 mg/kg, DB rabbit, 15 mg/kg BID, Day 15
[16] = choroid-RPE, po, 15 mg/kg, DB rabbit, 15 mg/kg single dose, Day 1

Work on `CC(=O)c1nn(CC(=O)N2C[C@H](F)C[C@H]2C(=O)Nc2cccc(Br)n2)c2ccc(-c3cnc(C)nc3)cc12` [Compound 1, (2S,4R)-1-(2-(3-Acetyl-5-(2-methylpyrimidin-5-yl)-1H-indazol-1-yl)acetyl)-N-(6-bromopyridin-2-yl)-4-fluoropyrrolidine-2-carboxamide] yielded an MRTlast [1] of 68.5 h, a Tlast [1] of 240 h and an MRTlast [2] of 49.7 h. The Tlast [2] was 240 h, the “Vitreous humor concentration after 24 hours post-dose (non-detectable)” value (DB rabbit, 15 mg/kg BID for 14 days) was less than 1.0 ng/mL and the “Mean Aqueous Humor concentration” value (DB rabbit, 15 mg/kg BID oral, Day 15, 0 h) was “BLQ^a”. For the same compound, the “Mean Aqueous Humor concentration” value (DB rabbit, 15 mg/kg BID oral, Day 15, 6 h) was “BLQ^a”, the “Mean Aqueous Humor concentration” value [3] was “BLQ^a” and the “Mean Vitreous Humor concentration” value [3] was “BLQ^a”. For the same compound, the Mean plasma concentration (DB rabbit, 15 mg/kg BID oral, Day 15, 24 h, 15 mg/kg) was 5.6 ng/mL, the “Mean Aqueous Humor concentration” value [4] was “BLQ^a” and the “Mean Vitreous Humor concentration” value [4] was “BLQ^a”. The “Mean Aqueous Humor concentration” value [5] was “BLQ^a”, the “Mean Vitreous Humor concentration” value [5] was “BLQ^a” and the Mean plasma concentration [5] was “BLQ^a”. The “Mean Aqueous Humor concentration” value [6] was “BLQ^a”, the “Mean Vitreous Humor concentration” value [6] was “BLQ^a” and the Mean plasma concentration [6] was “BLQ^a”. The “Mean Aqueous Humor concentration” value [7] was “BLQ^a”, the “Mean Vitreous Humor concentration” value [7] was “BLQ^a” and the Mean plasma concentration [7] was “BLQ^a”. The “Mean Choroid-RPE concentration” value [8] was “BLQ^a and BLQ”, the “Mean Iris-Ciliary Body concentration” value [8] was “BLQ^a and BLQ” and the Mean retina concentration [8] was “BLQa and BLQ^a and BLQ”. The Mean retina concentration (DB rabbit, 15 mg/kg single oral dose, Day 1, 6 h, 15 mg/kg) was 30 ng/g, the “Mean Aqueous Humor concentration” value [9] was “BLQ^a” and the “Mean Vitreous Humor concentration” value [9] was “BLQ^a”. The Mean retina concentration (DB rabbit, 15 mg/kg single oral dose, Day 1, 24 h, 15 mg/kg) was 25 ng/g, the “Mean Aqueous Humor concentration” value [10] was “BLQ^a” and the “Mean Vitreous Humor concentration” value [10] was “BLQ^a”. For the same compound, the Mean plasma concentration [11] was “no drug was detectable; also recorded: BLQ^a”, the Mean retina concentration [11] was “BLQ^a and BLQ” and the “Mean Vitreous Humor concentration” value [12] was “BLQ^a”. The Mean plasma concentration [12] was “BLQ^a”, the Mean retina concentration (DB rabbit, 15 mg/kg single oral dose, Day 1, 168 h, 15 mg/kg) was “BLQ^a and BLQ” and the “Mean Aqueous Humor concentration” value [13] was “BLQ^a”. The “Mean Vitreous Humor concentration” value [13] was “BLQ^a”, the Mean plasma concentration [13] was “BLQ^a” and the Mean retina concentration (DB rabbit, 15 mg/kg single oral dose, Day 1, 240 h, 15 mg/kg) was “BLQ^a and BLQ”. For the same compound, the “Accumulation of the drug in Choroid-RPE after repeat dosing” value (DB rabbit, Day 1 to Day 15) was roughly 6 fold, the “Mean Choroid-RPE concentration” value [14] was “BLQ” and the “Mean retina concentration” value [14] was “BLQ”. The “Mean retina concentration” value (DB rabbits, Day 1, 15 mg/kg single dose, 96 hr) was “BLQ”, the “Mean retina concentration” value (DB rabbits, Day 1, 15 mg/kg single dose, 168 hr) was “BLQ” and the “Mean retina concentration” value (DB rabbits, Day 1, 15 mg/kg single dose, 240 hr) was “BLQ”. It also gave a concentration at 1 h (aqueous humor, po, 15 mg/kg, DB rabbit, 15 mg/kg BID oral, Day 15, 1 h, read-out: Mean Aqueous Humor concentration) of 10.6 ng/mL, a concentration at 1 h (aqueous humor, po, 15 mg/kg, DB rabbit, 15 mg/kg single oral dose, Day 1, 1 h, read-out: Mean Aqueous Humor concentration) of 3.8 ng/mL and a concentration at 6 h (aqueous humor, po, 15 mg/kg, DB rabbit, 15 mg/kg single oral dose, Day 1, 6 h, read-out: Mean Aqueous Humor concentration) of 45.3 ng/mL. For the same compound, the concentration at 168 h (aqueous humor, po, 15 mg/kg, DB rabbit, 15 mg/kg single oral dose, Day 1, 168 h, read-out: Mean Aqueous Humor concentration) was 11.1 ng/mL, the concentration at 1 h (choroid-RPE, oral, 15 mg/kg, DB rabbits, Day 1, 15 mg/kg single dose, 1 hr, read-out: Mean Choroid-RPE Concentration) was 917 ng/g and the concentration at 6 h (choroid-RPE, oral, 15 mg/kg, DB rabbits, Day 1, 15 mg/kg single dose, 6 hr, read-out: Mean Choroid-RPE Concentration) was 866 ng/g. For the same compound, the concentration at 24 h (choroid-RPE, oral, 15 mg/kg, DB rabbits, Day 1, 15 mg/kg single dose, 24 hr, read-out: Mean Choroid-RPE Concentration) was 311 ng/g, the concentration at 96 h (choroid-RPE, oral, 15 mg/kg, DB rabbits, Day 1, 15 mg/kg single dose, 96 hr, read-out: Mean Choroid-RPE Concentration) was 77.5 ng/g and the concentration at 168 h (choroid-RPE, oral, 15 mg/kg, DB rabbits, Day 1, 15 mg/kg single dose, 168 hr, read-out: Mean Choroid-RPE Concentration) was 56.3 ng/g. For the same compound, the concentration at 240 h (choroid-RPE, oral, 15 mg/kg, DB rabbits, Day 1, 15 mg/kg single dose, 240 hr, read-out: Mean Choroid-RPE Concentration) was 28.1 ng/g, the concentration at 0 h (choroid-RPE, oral, 15 mg/kg, DB rabbits, Day 15, 15 mg/kg BID, 0 hr, read-out: Mean Choroid-RPE Concentration) was 2460 ng/g and the concentration at 1 h (choroid-RPE, oral, 15 mg/kg, DB rabbits, Day 15, 15 mg/kg BID, 1 hr, read-out: Mean Choroid-RPE Concentration) was 4870 ng/g. It also gave a concentration at 6 h (choroid-RPE, oral, 15 mg/kg, DB rabbits, Day 15, 15 mg/kg BID, 6 hr, read-out: Mean Choroid-RPE Concentration) of 3200 ng/g, a concentration at 24 h (choroid-RPE, oral, 15 mg/kg, DB rabbits, Day 15, 15 mg/kg BID, 24 hr, read-out: Mean Choroid-RPE Concentration) of 1960 ng/g and a concentration at 96 h (choroid-RPE, oral, 15 mg/kg, DB rabbits, Day 15, 15 mg/kg BID, 96 hr, read-out: Mean Choroid-RPE Concentration) of 866 ng/g. It also gave a concentration at 168 h (choroid-RPE, oral, 15 mg/kg, DB rabbits, Day 15, 15 mg/kg BID, 168 hr, read-out: Mean Choroid-RPE Concentration) of 485 ng/g, a concentration at 240 h (choroid-RPE, oral, 15 mg/kg, DB rabbits, Day 15, 15 mg/kg BID, 240 hr, read-out: Mean Choroid-RPE Concentration) of 340 ng/g and an MRT inf [15] of 125 h. The half-life [15] was 4.46 days, the MRT inf [16] was 81.8 h and the half-life [16] was 4.1 days. The concentration at 0 h (choroid-RPE, po, 15 mg/kg, DB rabbit, 15 mg/kg BID oral, Day 15, 0 h, read-out: Mean Choroid-RPE concentration) was 2460 ng/g, the concentration at 1 h (choroid-RPE, po, 15 mg/kg, DB rabbit, 15 mg/kg BID oral, Day 15, 1 h, read-out: Mean Choroid-RPE concentration) was 4870 ng/g and the concentration at 6 h (choroid-RPE, po, 15 mg/kg, DB rabbit, 15 mg/kg BID oral, Day 15, 6 h, read-out: Mean Choroid-RPE concentration) was 3200 ng/g. It also gave a concentration at 24 h (choroid-RPE, po, 15 mg/kg, DB rabbit, 15 mg/kg BID oral, Day 15, 24 h, read-out: Mean Choroid-RPE concentration) of 1960 ng/g, a concentration at 96 h (choroid-RPE, po, 15 mg/kg, DB rabbit, 15 mg/kg BID oral, Day 15, 96 h, read-out: Mean Choroid-RPE concentration) of 866 ng/g and a concentration at 168 h (choroid-RPE, po, 15 mg/kg, DB rabbit, 15 mg/kg BID oral, Day 15, 168 h, read-out: Mean Choroid-RPE concentration) of 485 ng/g. It also gave a concentration at 240 h (choroid-RPE, po, 15 mg/kg, DB rabbit, 15 mg/kg BID oral, Day 15, 240 h, read-out: Mean Choroid-RPE concentration) of 340 ng/g, a concentration at 1 h (choroid-RPE, po, 15 mg/kg, DB rabbit, 15 mg/kg single oral dose, Day 1, 1 h, read-out: Mean Choroid-RPE concentration) of 917 ng/g and a concentration at 6 h (choroid-RPE, po, 15 mg/kg, DB rabbit, 15 mg/kg single oral dose, Day 1, 6 h, read-out: Mean Choroid-RPE concentration) of 866 ng/g. The concentration at 24 h (choroid-RPE, po, 15 mg/kg, DB rabbit, 15 mg/kg single oral dose, Day 1, 24 h, read-out: Mean Choroid-RPE concentration) was 311 ng/g, the concentration at 96 h (choroid-RPE, po, 15 mg/kg, DB rabbit, 15 mg/kg single oral dose, Day 1, 96 h, read-out: Mean Choroid-RPE concentration) was 77.5 ng/g and the concentration at 168 h (choroid-RPE, po, 15 mg/kg, DB rabbit, 15 mg/kg single oral dose, Day 1, 168 h, read-out: Mean Choroid-RPE concentration) was 56.3 ng/g. For the same compound, the concentration at 240 h (choroid-RPE, po, 15 mg/kg, DB rabbit, 15 mg/kg single oral dose, Day 1, 240 h, read-out: Mean Choroid-RPE concentration) was 28.1 ng/g.
